The values that follow come from ChEMBL document CHEMBL4346715, “Antibacterial activity study of 1,2,4-triazole derivatives” (Eur J Med Chem, 2019).

Converted amounts (≈) assume the structure as drawn.

Assay [1] relates to Escherichia coli. Description: Antibacterial activity against Escherichia coli assessed as zone of inhibition. The format is functional.
Another assay concerns Salmonella typhimurium. In words: Antibacterial activity against Salmonella typhimurium assessed as zone of inhibition. The assay is classed as functional, Salmonella enterica subsp. enterica serovar Typhimurium.
For assay [2], the system named is Staphylococcus aureus. Description: Antibacterial activity against Staphylococcus aureus assessed as zone of inhibition. The format is functional.
Assay [3] relates to Bacillus subtilis. In words: Antibacterial activity against Bacillus subtilis assessed as zone of inhibition. The assay is classed as functional.
The subject of assay [4] is Pseudomonas aeruginosa. Description: Potency index, ratio of ciprofloxacin MIC to test compound MIC for Pseudomonas aeruginosa ATCC 27853 after 24 hrs by broth microdilution method. The assay is classed as functional.
Assay [5] relates to Listeria monocytogenes. In words: Potency index, ratio of ciprofloxacin MIC to test compound MIC for Listeria monocytogenes ATCC 35152 after 24 hrs by broth microdilution method. The format is functional. A general note: In broth dilution the organism is exposed to a series of concentrations in liquid medium.
The subject of assay [6] is Pseudomonas aeruginosa. In words: Antibacterial activity against Pseudomonas aeruginosa ATCC 27853 after 24 hrs by broth microdilution method. The following applies: ATCC 27853, 24 h. The format is functional.
The test system of assay [7] is Listeria monocytogenes. Description: Antibacterial activity against Listeria monocytogenes ATCC 35152 after 24 hrs by broth microdilution method. The format is functional. The note with it: ATCC 35152, 24 h.
In a further assay the test system is Plasmodium falciparum. In words: Antiplasmodial activity against Plasmodium falciparum. The format is functional, organism-based.
For assay [8], the system named is Staphylococcus aureus. Description: Antibacterial activity against methicillin-resistant Staphylococcus aureus incubated for 18 hrs post 30 mins pre-diffusion by disk diffusion method. The assay is classed as functional. For orientation: A growth-free zone around the sample is the usual read-out of agar diffusion tests.
Assay [9] deals with Escherichia coli. Description: Antibacterial activity against Escherichia coli incubated for 18 hrs post 30 mins pre-diffusion by disk diffusion method. The format is functional.
For the next assay, the system named is Listeria innocua. Description: Antibacterial activity against Listeria innocua incubated for 18 hrs post 30 mins pre-diffusion by disk diffusion method. The format is functional.
The next assay has as its system Micrococcus luteus. In words: Antibacterial activity against Micrococcus luteus incubated for 18 hrs post 30 mins pre-diffusion by disk diffusion method. The format is functional.
Assay [10] has as its system Bacillus subtilis. In words: Antibacterial activity against Bacillus subtilis incubated for 18 hrs post 30 mins pre-diffusion by disk diffusion method. The assay is classed as functional.
For another assay, the system named is Bacillus anthracis. In words: Antibacterial activity against Bacillus anthracis incubated for 18 hrs post 30 mins pre-diffusion by disk diffusion method. The assay is classed as functional.
In assay [11] the test system is Bacillus subtilis. In words: Antibacterial activity against Bacillus subtilis. The assay is classed as functional.
In a further assay the test system is Candida albicans. Description: Antifungal activity against Candida albicans. The assay is classed as functional.
The next assay deals with Trichophyton rubrum. In words: Antifungal activity against Trichophyton rubrum. The assay is classed as functional.
Another assay relates to Aspergillus niger. Description: Antifungal activity against Aspergillus niger. The assay is classed as functional.
For assay [12], the system named is Staphylococcus aureus. Description: Antibacterial activity against Staphylococcus aureus. The format is functional.
A further assay relates to Clostridium tetani. Description: Antibacterial activity against Clostridium tetani. The assay is classed as functional.
A further assay deals with Streptococcus pneumoniae. In words: Antibacterial activity against Streptococcus pneumoniae. The assay is classed as functional.
In assay [13] the test system is Escherichia coli. In words: Antibacterial activity against Escherichia coli. The format is functional.

As to `Fc1ccc(-c2nc(-c3ccccc3)c(-c3ccccc3)n2-n2c(-c3ccc(Cl)cc3)n[nH]c2=S)cc1`, the “inhibition zone (IZ)” value with Escherichia coli [1], in the assay with Salmonella typhimurium, with Staphylococcus aureus [2] and in the assay with Bacillus subtilis [3] was 10 - 18 mm each time.

Broadly, the MIC is the smallest concentration in the dilution series that meets the test's criterion for growth inhibition. On to `Cc1nc(-c2ccccc2)sc1-c1nnc(S)n1/N=C/c1ccc(N(C)C)cc1`, for which the Ratio in the assay with Pseudomonas aeruginosa [4] and in the assay on Listeria monocytogenes [5] was 2 each time. Also, the MIC in the assay with Pseudomonas aeruginosa [6] and in the assay on Listeria monocytogenes [7] was 1.95 µg/mL (≈ 4.64 µM) in each case.

Take `COc1ccccc1/C=N/n1c(S)nnc1-c1sc(-c2ccccc2)nc1C`: the Ratio in the assay on Pseudomonas aeruginosa [4] and in the assay on Listeria monocytogenes [5] was 2 throughout. In addition, the minimum inhibitory concentration (MIC) in the assay with Pseudomonas aeruginosa [6] and in the assay on Listeria monocytogenes [7] was 1.95 µg/mL (≈ 4.78 µM) each time.

Take `Cc1nc(-c2ccccc2)sc1-c1nnc(S)n1/N=C/c1cccs1`: the Ratio in the assay on Pseudomonas aeruginosa [4] and with Listeria monocytogenes [5] was 2 each time. Also, the MIC against Pseudomonas aeruginosa [6] and against Listeria monocytogenes [7] was 1.95 µg/mL (≈ 5.08 µM) throughout.

One may read the IC50 as the concentration that inhibits the measured activity by half. In turn, `C=C[C@H]1CN2CC[C@H]1C[C@H]2[C@H](O)c1ccnc2ccc(OC)cc12` [QUININE] returned an IC50 in the assay on Plasmodium falciparum of 0.268 µg/mL (≈ 0.826 µM).

With `Cc1nc(-c2ccccc2)sc1-c1nnc(S)n1/N=C/c1ccc([N+](=O)[O-])cc1`, the Ratio in the assay with Pseudomonas aeruginosa [4] and in the assay with Listeria monocytogenes [5] was 2 each time. Moreover, the MIC in the assay on Pseudomonas aeruginosa [6] and in the assay with Listeria monocytogenes [7] was 1.95 µg/mL (≈ 4.62 µM) in each case.

In the case of `CN(C)[C@@H]1C(O)=C(C(N)=O)C(=O)[C@@]2(O)C(O)=C3C(=O)c4c(O)cccc4[C@@](C)(O)[C@H]3C[C@@H]12` [TETRACYCLINE], the “inhibition zone (IZ)” value with Escherichia coli [1], in the assay with Salmonella typhimurium, with Staphylococcus aureus [2] and in the assay on Bacillus subtilis [3] was 14 - 17 mm throughout. In addition, the MIC was in the range of 31 to 1000 µg/mL (≈ 69.8 to 2250 µM) in the assay with Staphylococcus aureus [8]; 20 to 21 µg/mL (≈ 45 to 47.3 µM) in the assay on Escherichia coli [9]; 20 to 21 µg/mL (≈ 45 to 47.3 µM) against Listeria innocua; 20 to 21 µg/mL (≈ 45 to 47.3 µM) against Micrococcus luteus; 20 to 21 µg/mL (≈ 45 to 47.3 µM) against Bacillus subtilis [10]; 31 to 1000 µg/mL (≈ 69.8 to 2250 µM) against Bacillus anthracis.

Turning to `Cc1nn(-c2ccccc2)c(-n2cncn2)c1-c1cc(-c2ccc(F)cc2)nc2nc3ccccc3n12`, the MIC in the assay on Bacillus subtilis [11] lay in the range of 62.5 to 125 µg/mL (≈ 128 to 257 µM); with Candida albicans, 100 to 500 µg/mL (≈ 206 to 1030 µM); against Trichophyton rubrum it was 100 to 500 µg/mL (≈ 206 to 1030 µM); against Aspergillus niger, 100 to 500 µg/mL (≈ 206 to 1030 µM); against Staphylococcus aureus [12], 62.5 to 125 µg/mL (≈ 128 to 257 µM); in the assay on Clostridium tetani, 62.5 to 125 µg/mL (≈ 128 to 257 µM). In addition, the MIC in the assay on Streptococcus pneumoniae and with Escherichia coli [13] was 62.5 to 125 µg/mL (≈ 128 to 257 µM) in each case. Further, inhibition in the assay with Plasmodium falciparum was half-maximal at 0.041 µg/mL (≈ 0.0843 µM) (IC50).

As for `COC(=O)c1ncn(CN(CCCO)Cn2cnc(C(=O)OC)n2)n1`, the MIC in the assay on Escherichia coli [9], in the assay on Listeria innocua, against Micrococcus luteus and against Bacillus subtilis [10] was 7 to 15 µg/mL (≈ 19.8 to 42.5 µM) throughout.

`COC(=O)c1ncn(CN(Cn2cnc(C(=O)OC)n2)C(C)C)n1`: the MIC in the assay on Escherichia coli [9], in the assay on Listeria innocua, in the assay on Micrococcus luteus and against Bacillus subtilis [10] was 7 to 15 µg/mL (≈ 20.8 to 44.5 µM) in each case.

Take `Cn1cnc(CN(CCCO)Cc2ncn(C)n2)n1`: the MIC in the assay on Escherichia coli [9], with Listeria innocua, with Micrococcus luteus and with Bacillus subtilis [10] was 7 to 15 µg/mL (≈ 26.4 to 56.5 µM) throughout.

Take `S=c1[nH]nc(-c2ccc(Cl)cc2)n1-n1c(-c2ccc(Br)cc2)nc(-c2ccccc2)c1-c1ccccc1`: the “inhibition zone (IZ)” value in the assay on Escherichia coli [1], in the assay on Salmonella typhimurium, in the assay on Staphylococcus aureus [2] and with Bacillus subtilis [3] was 10 - 18 mm throughout.

`COc1cccc(/C=N/n2c(S)nnc2-c2sc(-c3ccccc3)nc2C)c1`: the Ratio in the assay with Pseudomonas aeruginosa [4] and in the assay on Listeria monocytogenes [5] was 2 each time. Further, the MIC with Pseudomonas aeruginosa [6] and against Listeria monocytogenes [7] was 1.95 µg/mL (≈ 4.78 µM) throughout.

Take `Cn1cnc(CNCc2ncn(C)n2)n1`: the MIC in the assay with Escherichia coli [9], against Listeria innocua, against Micrococcus luteus and with Bacillus subtilis [10] was 7 to 15 µg/mL (≈ 33.8 to 72.4 µM) throughout.

`N#Cc1ccc(-c2nc(-c3ccccc3)c(-c3ccccc3)n2-n2c(-c3ccc(Cl)cc3)n[nH]c2=S)cc1`: the “inhibition zone (IZ)” value in the assay on Escherichia coli [1], with Salmonella typhimurium, in the assay on Staphylococcus aureus [2] and in the assay with Bacillus subtilis [3] was 10 - 18 mm in each case.
